Results reported in US20080145858A1, “DETECTION AND IDENTIFICATION OF TOXICANTS BY MEASUREMENT OF GENE […]” (priority 2003, published 2008).

System: Xenopus laevis cleavage stage embryos (stage 8)
Experiment: Xenopus cDNA microarray, differential gene expression after PMA treatment during cleavage stage (Group I)
Assay type: in vivo
Details: PMA 100 ng/ml, stage 8
From the text: Specifically, the method and screen of the present invention function as follows. EST clones produced from Xenopus laevis unfertilized eggs were used in the present study with ˜1,200 EST clones from a 18,500 EST clone set selected for production of a Xenopus cDNA microarray. The Xenopus microarray was used to measure the effect of chemical treatment on Xenopus embryo gene regulation. The chemical treatment was a phorbol ester, PMA. Xenopus eggs were obtained from females induced for ovulation and fertilized in vitro. Control Xenopus laevis embryos were allowed to develop to stage 8 blastula or stage 15 neurula. Treated embryos were exposed to PMA during cleavage stage or during neurulation with end points of blastula (stage 8) or neurula (stage 15). Specifically, PMA 100 ng/ml was added to the incubation media during cleavage stages for evaluation in stage 8 embryo or PMA was added during neural induction for evaluation in stage 15 embryos. RNA extracted from the embryos was used to generate fluorescent cDNA probes for Xenopus microarray analyses to measure differential gene expression with and without the phorbol ester treatment. Analysis was performed using paired RNA samples to compare PMA-treated and untreated embryos: Group I measured the effects of PMA-treatment during the cleavage stage in stage 8 embryos and Group II measured the effects of PMA-treatment during neurulation in stage 15 embryos. Group III measured the change in gene expression between stage 8 and stage 15 embryos.
cDNA fragments were obtained by PCR replication of Xenopus laevis unfertilized egg cDNA inserts, purified, quantitated and loaded onto glass chips by robotics. In addition to the selected ˜1,200 genes, 64 lambda Q gene, an internal control cDNA (Genomic Solutions, Inc., Ann Arbor, Mich.) was loaded on the chip. The insert DNA from ˜1,200 clones were PCR amplified using forward and reverse primers (GF.200 primers, Research Genetics, Huntsville, Ala.). A second PCR was carried out using 1 μl of the primary PCR (20 μl) for template. Excess dNTPs, polymerase and other PCR artifacts were removed from the secondary PCR reactions using Millipore Multiscreen plates (Millipore Corporation, Bedford, Mass.) using the standard protocol. The purity of the PCR products was assessed by electrophoresis and documented using an Alphalmager 1000 Digital Imaging System (Alpha Innotech Corporation, San Leandro, Calif.). The DNA obtained by PCR was quantitated using PicoGreen (Molecular Probes, Eugene, Oreg.). The DNA was denatured and arrayed onto amino-silane coated microscope slides (CMT-GAPS coated slides, Corning, Corning, N.Y.) using a Flexys robotic workstation (Genomic Solutions Inc.). The ˜1,200 PCR products were arrayed in duplicate on each slide and cross-linked. Each gene chip contained duplicate cDNA samples.
Total RNA was prepared from embryos treated in three separate dishes per treatment group that were pooled. Total RNA was isolated from the frog embryos (1,200 embryos for each probe production) using TRIzol extraction (Gibco BRL, Grand Island, N.Y.) and Qiagen RNeasy kits (Qiagen, Valencia, Calif.). The ethanol precipitated RNA was resuspended in RNase-free water, quantitated with RiboGreen (Molecular Probes, Eugene, Oreg.). Total RNA was further purified using oligoTex mRNA maxi kit (Qiagen Co.) with the bound mRNA eluted with minimum volume of elution buffer and precipitated with ethanol. The recovery rate of mRNA by the ethanol precipitation method was ˜70%. Cy3- or Cy5-tagged probes were produced from an mRNA mixture (20 μl) of Xenopus mRNA (5 μg) and lambda Q gene mRNA (3.5 ng) reverse-transcribed with oligo(dT)18-22 primer and dNTPs and the reverse-transcribed cDNA was cross-linked with Cy3 or Cy5 as described in Clontech Atlas™ Glass Fluorescent Labeling kit manual (www.clontech.com). After hydrolysis of the RNA and purification of the probe (Centricon 50, Millipore, Bedford, Mass.), the cDNA in TE buffer was quantitated by absorbance at 260 nm. […]

SMILES: CCCCCCCCCCCCCC(=O)O[C@@H]1[C@@H](C)[C@@]2(O)[C@@H](C=C(CO)C[C@]3(O)C(=O)C(C)=C[C@@H]23)[C@@H]2C(C)(C)[C@]12OC(C)=O [PMA, phorbol 12-myristate 12-acetate]
- Ratio of Medians (Cy5/Cy3) Mean (PBX0138A04 mRNA): 2.99 ± 1.32
- Ratio of Medians (Cy5/Cy3) Second Spot (PBX0138A04 mRNA): 4.33
- (CY3/CY5) by Landmarks (1.6) (PBX0138C12 mRNA): 3.59
- (CY3/CY5) by all Data Points (1.3) (PBX0138C12 mRNA): 5.74
- Normalization by Landmarks (1.6) (PBX0138C12 mRNA): 0.28
- Normalization by all Data Points (1.3) (PBX0138C12 mRNA): 0.17
- Ratio of Medians (Cy5/Cy3) First Spot (PBX0138C12 mRNA): 0.14
- Ratio of Medians (Cy5/Cy3) Mean (PBX0138C12 mRNA): 0.13 ± 0.01
- Ratio of Medians (Cy5/Cy3) Second Spot (PBX0138C12 mRNA): 0.13
- Normalized by Landmarks (1.59) (PBX0138D01 mRNA): 4.45
- Normalized by all Data Points (1.28) (PBX0138D01 mRNA): 3.58
- Ratio of Medians (Cy5/Cy3) First Spot (PBX0138D01 mRNA): 3.50
- Ratio of Medians (Cy5/Cy3) Mean (PBX0138D01 mRNA): 2.80 ± 0.70
- Ratio of Medians (Cy5/Cy3) Second Spot (PBX0138D01 mRNA): 2.10
- (CY3/CY5) by Landmarks (1.6) (PBX0138E10 mRNA): 2.68
- (CY3/CY5) by all Data Points (1.3) (PBX0138E10 mRNA): 4.29
- Normalization by Landmarks (1.6) (PBX0138E10 mRNA): 0.37
- Normalization by all Data Points (1.3) (PBX0138E10 mRNA): 0.23
- Ratio of Medians (Cy5/Cy3) First Spot (PBX0138E10 mRNA): 0.15
- Ratio of Medians (Cy5/Cy3) Mean (PBX0138E10 mRNA): 0.18 ± 0.03
- Ratio of Medians (Cy5/Cy3) Second Spot (PBX0138E10 mRNA): 0.21
- (CY3/CY5) by Landmarks (1.6) (PBX0138G10 mRNA): 3.35
- (CY3/CY5) by all Data Points (1.3) (PBX0138G10 mRNA): 5.36
- Normalization by Landmarks (1.6) (PBX0138G10 mRNA): 0.30
- Normalization by all Data Points (1.3) (PBX0138G10 mRNA): 0.19
- Ratio of Medians (Cy5/Cy3) First Spot (PBX0138G10 mRNA): 0.10
- Ratio of Medians (Cy5/Cy3) Mean (PBX0138G10 mRNA): 0.14 ± 0.04
- Ratio of Medians (Cy5/Cy3) Second Spot (PBX0138G10 mRNA): 0.18
- (CY3/CY5) by Landmarks (1.6) (PBX0138G12 mRNA): 2.56
- (CY3/CY5) by all Data Points (1.3) (PBX0138G12 mRNA): 4.09
- Normalization by Landmarks (1.6) (PBX0138G12 mRNA): 0.39
- Normalization by all Data Points (1.3) (PBX0138G12 mRNA): 0.24
- Ratio of Medians (Cy5/Cy3) First Spot (PBX0138G12 mRNA): 0.17
- Ratio of Medians (Cy5/Cy3) Mean (PBX0138G12 mRNA): 0.19 ± 0.02
- Ratio of Medians (Cy5/Cy3) Second Spot (PBX0138G12 mRNA): 0.21
- Normalized by Landmarks (1.59) (PBX0139A08 mRNA): 4.21
- Normalized by all Data Points (1.28) (PBX0139A08 mRNA): 3.39
- Ratio of Medians (Cy5/Cy3) First Spot (PBX0139A08 mRNA): 2.00
- Ratio of Medians (Cy5/Cy3) Mean (PBX0139A08 mRNA): 2.65 ± 0.65
- Ratio of Medians (Cy5/Cy3) Second Spot (PBX0139A08 mRNA): 3.29
- Normalized by Landmarks (1.59) (PBX0139B06 mRNA): 5.45
- Normalized by all Data Points (1.28) (PBX0139B06 mRNA): 4.39
- Ratio of Medians (Cy5/Cy3) First Spot (PBX0139B06 mRNA): 4.00
- Ratio of Medians (Cy5/Cy3) Mean (PBX0139B06 mRNA): 3.43 ± 0.57
- Ratio of Medians (Cy5/Cy3) Second Spot (PBX0139B06 mRNA): 2.86
- (CY3/CY5) by Landmarks (1.6) (PBX0139D03 mRNA): 3.15
- (CY3/CY5) by all Data Points (1.3) (PBX0139D03 mRNA): 5.04
- Normalization by Landmarks (1.6) (PBX0139D03 mRNA): 0.32
- Normalization by all Data Points (1.3) (PBX0139D03 mRNA): 0.20
- Ratio of Medians (Cy5/Cy3) First Spot (PBX0139D03 mRNA): 0.04
- Ratio of Medians (Cy5/Cy3) Mean (PBX0139D03 mRNA): 0.15 ± 0.11
- Ratio of Medians (Cy5/Cy3) Second Spot (PBX0139D03 mRNA): 0.26
- (CY3/CY5) by Landmarks (1.6) (PBX0139F05 mRNA): 3.52
- (CY3/CY5) by all Data Points (1.3) (PBX0139F05 mRNA): 5.64
- Normalization by Landmarks (1.6) (PBX0139F05 mRNA): 0.28
- Normalization by all Data Points (1.3) (PBX0139F05 mRNA): 0.18
- Ratio of Medians (Cy5/Cy3) First Spot (PBX0139F05 mRNA): 0.15
- Ratio of Medians (Cy5/Cy3) Mean (PBX0139F05 mRNA): 0.14 ± 0.02
- Ratio of Medians (Cy5/Cy3) Second Spot (PBX0139F05 mRNA): 0.12
- (CY3/CY5) by Landmarks (1.6) (PBX0139F12 mRNA): 2.63
- (CY3/CY5) by all Data Points (1.3) (PBX0139F12 mRNA): 4.21
- Normalization by Landmarks (1.6) (PBX0139F12 mRNA): 0.38
- Normalization by all Data Points (1.3) (PBX0139F12 mRNA): 0.24
- Ratio of Medians (Cy5/Cy3) First Spot (PBX0139F12 mRNA): 0.20
- Ratio of Medians (Cy5/Cy3) Mean (PBX0139F12 mRNA): 0.18 ± 0.02
- Ratio of Medians (Cy5/Cy3) Second Spot (PBX0139F12 mRNA): 0.16
- (CY3/CY5) by Landmarks (1.6) (PBX0139H03 mRNA): 2.11
- (CY3/CY5) by all Data Points (1.3) (PBX0139H03 mRNA): 3.38
- Normalization by Landmarks (1.6) (PBX0139H03 mRNA): 0.47
- Normalization by all Data Points (1.3) (PBX0139H03 mRNA): 0.30
- Ratio of Medians (Cy5/Cy3) First Spot (PBX0139H03 mRNA): 0.26
- Ratio of Medians (Cy5/Cy3) Mean (PBX0139H03 mRNA): 0.23 ± 0.03
- Ratio of Medians (Cy5/Cy3) Second Spot (PBX0139H03 mRNA): 0.20
